{"source": "patent US20090324700A1", "about": "“METHODS AND COMPOSITIONS FOR THE INHIBITION OF CATHEPSINS” (priority 2003, published 2009)", "key": {"NIH3T3 cells": {"tested_on": "NIH3T3 cells", "assay": "TNF-α death assays, NIH3T3 cells", "format": "cell-based", "details": "Z-VAD.fmk 50 μM, TNF-α 10 ng/ml, 16 h; FIG. 9A", "method": "(§1) TNF-α death assays. NIH3T3 cells were transduced with MIGR1 retrovirus (Zhang and Ren, 1998) encoding either GFP alone, or Spi2A in the forward (sense) or reverse (antisense) orientation and stable clones generated, as described previously (Liu et al., 2003). Cells were treated with TNF-α (R&D) and after 16 h the number of live GFP-positive adherent cells were counted by flow cytometry (Liu et al., 2003). Live cells were defined as those that excluded propidium iodide (PI-negative) and had the appropriate size, as defined by forward and side light scatter characteristics. Caspase activity was inhibited by pre-treatment of cells or extracts for 1 h with Z-VAD.fmk (ICN Biomedicals Inc; 50 μM). […] In anti-sense experiments the level of Spi2A mRNA was quantitated by real-time PCR using primers and probes specific for Spi2A (Inglis et al., 1991) and cyclofilin A control mRNA (Medhurst et al., 2000), 4 h after treatment with Z-VAD.fmk ([…]) and TNF-α (10 ng/ml), as described previously (Liu et al., 2003)."}, "caspase activity": {"tested_on": "caspase activity", "assay": "Caspase activity enzyme assay, NIH3T3 cells", "format": "cell-based", "details": "Z-VAD.fmk 50 μM, 1 h pre-treatment; verified by enzyme assay", "method": "as §1"}, "RelA^−/− MEFs": {"tested_on": "RelA^−/− MEFs", "assay": "Survival assay, TNF-α and CHX, RelA^−/− MEFs", "format": "cell-based, mouse", "details": "CHX 0.1 μg/ml"}, "cathepsin B": {"target": "T1, cathepsin B (Mus musculus, UniProt P10605)", "T1 construct": "endogenous in cells; host or cells: RelA-/- or RelA+/+ MEFs (retrovirally transduced with GFP, RelA, Spi2A or antisense Spi2A)", "T1 sequence (P10605 80-333)": "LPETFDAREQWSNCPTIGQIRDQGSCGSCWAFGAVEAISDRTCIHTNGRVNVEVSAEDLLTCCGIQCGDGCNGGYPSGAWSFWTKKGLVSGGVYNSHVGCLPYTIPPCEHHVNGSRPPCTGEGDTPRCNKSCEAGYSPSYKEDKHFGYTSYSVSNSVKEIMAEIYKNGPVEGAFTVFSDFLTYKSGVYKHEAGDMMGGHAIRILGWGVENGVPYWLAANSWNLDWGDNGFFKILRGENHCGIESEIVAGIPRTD", "assay": "Cathepsin B activity in crude cytoplasmic extracts, RelA^−/− MEFs", "format": "cell-based", "method": "Survival Assays. Although RelA^−/− MEFs are markedly more sensitive to TNF-α compared to RelA^+/+ MEFs, low levels of CHX (0.1 μg/ml) were used in the survival assays. This was to suppress any protective activity of constitutively active non-RelA NF-κB molecules that are present in RelA^−/− MEFs (FIG. 4). Thus, RelA^−/− MEFs were treated with CHX and TNF-α (R&D) and the number of live GFP-positive adherent cells was counted by flow cytometry after 16 h, if not indicated otherwise. Live cells were defined as those that excluded propidium iodide (PI-negative) and had the appropriate size, as defined by forward and side scatter characteristics (Coligan et al., 1995). For RelA^+/+ MEFs, TNF-α-cytotoxicity was determined after 16 h with CHX (10 μg/ml), if not indicated otherwise. Cathepsin B activity was inhibited by a 1 h pre-treatment of MEFs with CA-074 Me (30 μM) (Peptide Institute). […] RelA^−/− MEFs were treated with (10-50 μM) sphingosine (Calbiochem) and the number of live GFP-positive adherent cells was counted by flow cytometry after 2 h.\nDeath effector assays. Death effector pathways were induced in […] MEFs by treatment TNF-α (0.2 ng/ml) and CHX (0.1 μg/ml). […] Protein concentration was determined by Lowry assay (DC-protein assay kit, Biorad). […]\nColorimetric assays for capases were performed in reaction buffer (50 mM HEPES, pH 7.4, 100 mM NaCl, 10 mM DTT, 1 mM EDTA, 10% glycerol, 0.1% CHAPS) at 37° C. on crude cytoplasmic extracts using p-Nitoaniline (pNA)-labeled substrates (Calbiochem) specific for caspases 3 and 7 (Ac-DEVD-pNA), caspase 8 (Ac-IETD-pNA), caspase 9 (Ac-LEHD-pNA), each at 0.2 mM. Specific activity was determined by subtracting the apparent activity detected after 1 h pre-incubation of extract with the pan-caspase inhibitor Z-VAD.fmk at 50 μM (ICN Biomedicals Inc), then normalizing for the amount of protein. […] Specific activity was determined by subtracting the apparent activity detected after 30 min pre-incubation of extract at 37° C. with the cathespin B inhibitor CA-074 Me at 30 μM (Peptide Institute) then normalizing for the amount of protein."}}, "note": "Residues, ends and D or L forms follow the SMILES beside them. *: point of attachment. Cbz = O=C(OCc1ccccc1)*; CH2F = FC*", "data": [{"compound": "COC(=O)C[C@H](NC(=O)[C@H](C)NC(=O)[C@@H](NC(=O)OCc1ccccc1)C(C)C)C(=O)CF", "note": "[Z-VAD.fmk, reference compound] (Cbz-Val-Ala-Asp(OMe)-CH2F)", "values": [{"measurement": "Sensitization to PCD by TNF-α (percentage survival)", "setting": "NIH3T3 cells", "result": "sensitized"}, {"measurement": "Inhibition of caspase activity", "setting": "caspase activity", "result": "complete inhibition"}]}, {"compound": "CCCNC(=O)[C@H]1O[C@@H]1C(=O)N[C@H](C(=O)N1CCC[C@H]1C(=O)OC)[C@@H](C)CC", "note": "[CA-074 Me, reference compound]", "values": [{"measurement": "Protection from TNF-α-induced death (percentage survival)", "setting": "RelA^−/− MEFs; CA-074 Me 30 μM, TNF-α 0.5 ng/ml, FIG. 1A", "result": "protected"}, {"measurement": "Inhibition of cathepsin B activity in MEFs", "setting": "cathepsin B; CA-074 Me 30 μM, 1 h pre-treatment, verified by enzyme assay", "result": "complete inhibition"}]}, {"compound": "RelA: human RelA (p65) cDNA expressed from MIGR1 retrovirus in RelA^−/− MEFs [reference compound]", "values": [{"measurement": "Percentage survival after TNF-α and CHX, retrovirally transduced cells vs GFP", "setting": "RelA^−/− MEFs; 16 h, FIG. 1B, 2B", "result": "complete protection"}, {"measurement": "Cytosolic cathepsin B activity after TNF-α, retrovirally transduced cells", "setting": "cathepsin B; TNF-α 0.2 ng/ml, CHX 0.1 μg/ml, FIG. 1C, 7A", "result": "extinguished"}]}]}
